# Activity calls are given as the source filed them. The calls are words filed in the database; no cut-off is given here.
# Tests used:
# MDA-MB-231 [1] = experiment: Antiproliferative activity against human MDA-MB-231 cells assessed as cell viability measured after 24 hrs by CCK-8 assay; assay type: functional, cell-based; conditions: MDA-MB-231, 24 h
# [2] = biological target: T1, Histone-lysine N-methyltransferase EHMT2 (Homo sapiens) (UniProt Q96KQ7); experiment: Binding affinity to G9a in human MDA-MB-231 cells assessed as protein stabilization at 37 to 41.7 degC at 10 uM incubated for 15 hrs in presence of G9a antibody by CETSA; assay type: cell-based
# T1 sequence (whole entry): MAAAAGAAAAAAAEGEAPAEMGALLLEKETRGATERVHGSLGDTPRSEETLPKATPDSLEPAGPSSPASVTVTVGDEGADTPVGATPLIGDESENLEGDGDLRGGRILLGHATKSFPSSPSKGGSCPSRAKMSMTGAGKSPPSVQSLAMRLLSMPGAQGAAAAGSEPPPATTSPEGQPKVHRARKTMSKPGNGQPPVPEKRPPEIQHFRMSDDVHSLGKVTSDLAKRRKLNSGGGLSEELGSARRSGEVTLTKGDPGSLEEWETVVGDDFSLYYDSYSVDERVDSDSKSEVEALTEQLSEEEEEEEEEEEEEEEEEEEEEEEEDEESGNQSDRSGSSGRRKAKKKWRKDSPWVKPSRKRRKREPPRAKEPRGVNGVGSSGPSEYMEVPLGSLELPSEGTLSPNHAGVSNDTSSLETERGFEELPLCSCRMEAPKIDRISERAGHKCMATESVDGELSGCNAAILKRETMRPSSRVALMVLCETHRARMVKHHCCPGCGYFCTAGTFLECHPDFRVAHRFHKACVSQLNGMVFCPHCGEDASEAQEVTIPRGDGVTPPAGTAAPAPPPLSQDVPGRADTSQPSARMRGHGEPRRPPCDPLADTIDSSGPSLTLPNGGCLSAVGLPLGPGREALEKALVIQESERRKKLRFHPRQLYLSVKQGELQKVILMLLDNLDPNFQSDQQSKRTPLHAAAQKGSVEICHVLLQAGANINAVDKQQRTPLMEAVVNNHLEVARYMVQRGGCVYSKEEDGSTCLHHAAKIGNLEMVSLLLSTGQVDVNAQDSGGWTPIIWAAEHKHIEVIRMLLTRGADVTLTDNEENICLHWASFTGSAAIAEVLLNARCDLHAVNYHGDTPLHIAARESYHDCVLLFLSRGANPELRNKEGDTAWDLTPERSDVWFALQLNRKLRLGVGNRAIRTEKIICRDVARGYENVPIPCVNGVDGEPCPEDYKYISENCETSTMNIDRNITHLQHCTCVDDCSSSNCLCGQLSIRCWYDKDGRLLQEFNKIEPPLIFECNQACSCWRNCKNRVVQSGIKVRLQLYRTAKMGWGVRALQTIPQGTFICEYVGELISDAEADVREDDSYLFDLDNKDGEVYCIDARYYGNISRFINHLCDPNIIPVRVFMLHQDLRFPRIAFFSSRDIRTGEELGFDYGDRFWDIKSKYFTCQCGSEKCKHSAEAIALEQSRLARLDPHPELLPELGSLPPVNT
# [3] = biological target: Histone-lysine N-methyltransferase 2A (Homo sapiens, UniProt Q03164); experiment: Inhibition of MLL1 (unknown origin)
# Chain of Histone-lysine N-methyltransferase 2A (Q03164 1-2718 limits assumed): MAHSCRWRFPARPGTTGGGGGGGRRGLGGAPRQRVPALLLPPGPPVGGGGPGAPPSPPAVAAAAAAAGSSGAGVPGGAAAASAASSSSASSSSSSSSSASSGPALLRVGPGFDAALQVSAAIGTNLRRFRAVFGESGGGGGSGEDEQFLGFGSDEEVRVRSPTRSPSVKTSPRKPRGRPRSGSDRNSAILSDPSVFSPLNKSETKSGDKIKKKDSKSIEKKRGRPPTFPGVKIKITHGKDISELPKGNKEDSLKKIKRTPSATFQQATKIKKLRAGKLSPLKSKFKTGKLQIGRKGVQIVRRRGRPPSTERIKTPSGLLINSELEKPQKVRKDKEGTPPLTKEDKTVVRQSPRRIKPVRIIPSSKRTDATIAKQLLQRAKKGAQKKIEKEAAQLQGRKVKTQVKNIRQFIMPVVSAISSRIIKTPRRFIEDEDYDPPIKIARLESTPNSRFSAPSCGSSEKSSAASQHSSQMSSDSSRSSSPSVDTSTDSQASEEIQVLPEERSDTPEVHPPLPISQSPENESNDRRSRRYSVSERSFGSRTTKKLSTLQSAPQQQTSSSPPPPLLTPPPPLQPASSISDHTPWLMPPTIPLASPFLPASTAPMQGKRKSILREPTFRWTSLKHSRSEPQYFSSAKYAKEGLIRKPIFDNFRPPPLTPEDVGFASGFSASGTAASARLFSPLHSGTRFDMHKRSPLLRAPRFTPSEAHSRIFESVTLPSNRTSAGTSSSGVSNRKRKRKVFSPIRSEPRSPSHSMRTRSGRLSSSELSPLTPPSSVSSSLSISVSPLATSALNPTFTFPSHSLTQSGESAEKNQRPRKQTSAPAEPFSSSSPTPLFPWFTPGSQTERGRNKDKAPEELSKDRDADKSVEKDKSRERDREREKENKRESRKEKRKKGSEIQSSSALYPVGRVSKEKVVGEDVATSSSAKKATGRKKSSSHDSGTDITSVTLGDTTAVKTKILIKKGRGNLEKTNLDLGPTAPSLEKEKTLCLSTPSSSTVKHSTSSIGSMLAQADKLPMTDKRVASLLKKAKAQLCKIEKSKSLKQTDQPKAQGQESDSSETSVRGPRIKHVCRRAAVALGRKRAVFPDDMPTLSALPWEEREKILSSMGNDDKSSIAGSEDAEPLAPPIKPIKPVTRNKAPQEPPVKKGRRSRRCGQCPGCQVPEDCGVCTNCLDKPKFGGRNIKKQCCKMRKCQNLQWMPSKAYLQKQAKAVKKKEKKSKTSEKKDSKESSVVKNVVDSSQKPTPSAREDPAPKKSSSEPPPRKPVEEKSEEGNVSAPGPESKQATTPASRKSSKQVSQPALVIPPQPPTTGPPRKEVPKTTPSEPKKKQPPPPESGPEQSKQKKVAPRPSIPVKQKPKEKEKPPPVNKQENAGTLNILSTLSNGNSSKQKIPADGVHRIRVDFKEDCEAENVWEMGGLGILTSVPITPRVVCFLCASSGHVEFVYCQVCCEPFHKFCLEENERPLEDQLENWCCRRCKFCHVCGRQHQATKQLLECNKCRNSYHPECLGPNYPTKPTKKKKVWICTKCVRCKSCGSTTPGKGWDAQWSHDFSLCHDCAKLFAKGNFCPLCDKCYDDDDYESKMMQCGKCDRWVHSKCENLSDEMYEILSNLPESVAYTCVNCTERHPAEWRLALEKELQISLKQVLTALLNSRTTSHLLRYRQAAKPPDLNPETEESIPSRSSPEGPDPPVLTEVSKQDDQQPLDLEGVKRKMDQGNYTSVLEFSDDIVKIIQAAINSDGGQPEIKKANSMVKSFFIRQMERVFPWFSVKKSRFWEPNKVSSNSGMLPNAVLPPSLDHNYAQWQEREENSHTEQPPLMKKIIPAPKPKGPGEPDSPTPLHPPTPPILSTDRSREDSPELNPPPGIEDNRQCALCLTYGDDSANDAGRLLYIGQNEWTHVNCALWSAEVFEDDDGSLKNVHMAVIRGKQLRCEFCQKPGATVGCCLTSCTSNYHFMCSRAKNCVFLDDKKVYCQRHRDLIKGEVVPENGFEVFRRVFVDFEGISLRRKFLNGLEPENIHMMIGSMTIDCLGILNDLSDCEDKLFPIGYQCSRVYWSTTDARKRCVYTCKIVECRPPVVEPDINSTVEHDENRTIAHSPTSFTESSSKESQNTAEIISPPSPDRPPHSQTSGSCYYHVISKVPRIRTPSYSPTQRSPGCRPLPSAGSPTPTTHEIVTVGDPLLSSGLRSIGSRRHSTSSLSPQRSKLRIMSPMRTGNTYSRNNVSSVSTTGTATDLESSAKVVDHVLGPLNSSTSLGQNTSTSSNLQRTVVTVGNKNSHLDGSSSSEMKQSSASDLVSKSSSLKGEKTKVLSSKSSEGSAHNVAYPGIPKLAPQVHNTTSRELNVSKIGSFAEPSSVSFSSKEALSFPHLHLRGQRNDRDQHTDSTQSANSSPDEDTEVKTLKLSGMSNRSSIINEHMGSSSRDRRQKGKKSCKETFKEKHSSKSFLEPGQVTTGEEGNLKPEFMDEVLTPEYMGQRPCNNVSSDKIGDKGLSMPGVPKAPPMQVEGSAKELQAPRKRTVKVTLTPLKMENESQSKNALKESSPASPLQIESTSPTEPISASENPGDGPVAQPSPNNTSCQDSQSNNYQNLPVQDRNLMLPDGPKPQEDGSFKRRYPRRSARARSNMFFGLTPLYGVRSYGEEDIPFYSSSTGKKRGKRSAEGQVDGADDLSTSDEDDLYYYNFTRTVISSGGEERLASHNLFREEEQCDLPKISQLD
# Chain of Histone-lysine N-methyltransferase 2A (Q03164 2719-3969 limits assumed): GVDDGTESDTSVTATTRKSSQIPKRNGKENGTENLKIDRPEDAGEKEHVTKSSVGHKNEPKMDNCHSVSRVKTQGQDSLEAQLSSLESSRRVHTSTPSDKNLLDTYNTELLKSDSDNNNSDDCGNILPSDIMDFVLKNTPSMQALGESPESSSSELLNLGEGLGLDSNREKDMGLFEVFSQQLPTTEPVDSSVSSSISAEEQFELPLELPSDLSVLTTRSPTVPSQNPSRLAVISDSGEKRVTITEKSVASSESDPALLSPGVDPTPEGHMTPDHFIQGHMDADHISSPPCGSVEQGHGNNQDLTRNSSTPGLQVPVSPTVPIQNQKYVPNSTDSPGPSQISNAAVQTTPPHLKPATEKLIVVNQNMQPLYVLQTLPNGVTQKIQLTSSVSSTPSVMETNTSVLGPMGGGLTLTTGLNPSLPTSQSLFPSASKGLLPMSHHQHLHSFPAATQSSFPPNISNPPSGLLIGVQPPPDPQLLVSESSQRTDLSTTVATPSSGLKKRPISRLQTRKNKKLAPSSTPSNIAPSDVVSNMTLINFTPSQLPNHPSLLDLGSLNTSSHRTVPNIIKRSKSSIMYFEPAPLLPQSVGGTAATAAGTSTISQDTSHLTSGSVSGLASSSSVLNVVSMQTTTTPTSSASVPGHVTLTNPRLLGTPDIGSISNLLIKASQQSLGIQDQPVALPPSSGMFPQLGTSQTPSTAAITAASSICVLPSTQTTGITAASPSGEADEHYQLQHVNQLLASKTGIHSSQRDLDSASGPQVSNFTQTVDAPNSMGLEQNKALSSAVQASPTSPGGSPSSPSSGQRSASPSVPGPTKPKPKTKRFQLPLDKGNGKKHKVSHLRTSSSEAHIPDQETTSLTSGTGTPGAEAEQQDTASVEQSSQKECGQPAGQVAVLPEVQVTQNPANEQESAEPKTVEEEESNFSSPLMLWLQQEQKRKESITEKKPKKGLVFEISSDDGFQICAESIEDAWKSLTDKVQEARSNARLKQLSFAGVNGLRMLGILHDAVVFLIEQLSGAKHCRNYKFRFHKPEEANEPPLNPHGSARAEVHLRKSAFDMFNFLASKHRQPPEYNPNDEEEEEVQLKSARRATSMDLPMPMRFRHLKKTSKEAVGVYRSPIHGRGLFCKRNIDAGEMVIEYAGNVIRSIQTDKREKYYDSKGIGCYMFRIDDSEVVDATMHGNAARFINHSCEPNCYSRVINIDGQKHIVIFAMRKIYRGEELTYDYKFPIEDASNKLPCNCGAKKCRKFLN
# [4] = biological target: T2, Histone-lysine N-methyltransferase EHMT1 (Homo sapiens) (UniProt Q9H9B1); experiment: Covalent inhibition of recombinant GLP (unknown origin) assessed as adduct formation intensity by measuring mass after 12 hrs by mass spectrometric analysis
# T2 sequence (whole entry): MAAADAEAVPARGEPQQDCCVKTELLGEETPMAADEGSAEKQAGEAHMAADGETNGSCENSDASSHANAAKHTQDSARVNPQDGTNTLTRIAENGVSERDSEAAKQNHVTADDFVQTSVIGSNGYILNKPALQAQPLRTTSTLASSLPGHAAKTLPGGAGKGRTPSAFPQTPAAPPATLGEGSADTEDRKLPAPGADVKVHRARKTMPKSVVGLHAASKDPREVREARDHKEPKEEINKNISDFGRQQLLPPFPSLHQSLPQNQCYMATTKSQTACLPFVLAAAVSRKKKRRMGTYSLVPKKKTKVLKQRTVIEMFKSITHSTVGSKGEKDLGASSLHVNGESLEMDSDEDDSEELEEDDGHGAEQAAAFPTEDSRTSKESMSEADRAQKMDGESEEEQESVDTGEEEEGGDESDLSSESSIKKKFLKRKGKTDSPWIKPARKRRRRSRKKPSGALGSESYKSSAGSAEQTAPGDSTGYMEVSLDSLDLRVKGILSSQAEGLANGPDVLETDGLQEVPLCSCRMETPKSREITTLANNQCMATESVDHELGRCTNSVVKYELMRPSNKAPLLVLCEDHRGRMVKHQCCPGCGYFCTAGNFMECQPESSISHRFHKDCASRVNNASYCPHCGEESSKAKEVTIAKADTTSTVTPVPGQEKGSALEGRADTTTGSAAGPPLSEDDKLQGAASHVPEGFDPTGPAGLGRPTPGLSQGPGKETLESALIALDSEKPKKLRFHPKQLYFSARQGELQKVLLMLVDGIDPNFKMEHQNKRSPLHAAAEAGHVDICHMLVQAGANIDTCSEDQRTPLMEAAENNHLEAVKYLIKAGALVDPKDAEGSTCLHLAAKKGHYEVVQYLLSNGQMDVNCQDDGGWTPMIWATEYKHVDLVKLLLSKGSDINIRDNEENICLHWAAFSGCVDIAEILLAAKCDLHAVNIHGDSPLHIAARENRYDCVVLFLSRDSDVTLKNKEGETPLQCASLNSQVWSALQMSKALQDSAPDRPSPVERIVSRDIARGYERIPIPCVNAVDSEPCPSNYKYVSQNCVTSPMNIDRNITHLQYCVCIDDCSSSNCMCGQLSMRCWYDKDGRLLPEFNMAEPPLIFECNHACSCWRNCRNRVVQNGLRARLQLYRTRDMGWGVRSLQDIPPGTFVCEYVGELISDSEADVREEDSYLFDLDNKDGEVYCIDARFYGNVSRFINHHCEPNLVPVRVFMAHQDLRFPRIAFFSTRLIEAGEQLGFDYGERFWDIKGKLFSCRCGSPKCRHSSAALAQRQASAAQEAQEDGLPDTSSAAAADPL
# MDA-MB-231 [5] = experiment: Inhibition of colony formation in human MDA-MB-231 cells at […] incubated for 14 days drug medium changed for every 2 days by crystal violet staining based analysis; assay type: cell-based; conditions: dose 2.5 µM, time 14.0 day
# PANC-1 [6] = experiment: Inhibition of colony formation in human PANC-1 cells at […] incubated for 14 days drug medium changed for every 2 days by crystal violet staining based analysis; assay type: cell-based; conditions: dose 2.5 µM, time 14.0 day
# PANC-1 [7] = experiment: In vivo antitumor activity against human PANC-1 cells xenografted in Balb/c mouse model assessed as tumor growth inhibition at 2 mg/kg, ip treated for 22 days relative to control; assay type: functional; conditions: PANC-1, 528 h, time 22 day, read-out: TGI
# [8] = Cmax in ICR mouse at 2 mg/kg, ip measured upto 24 hrs by LC-MS/MS analysis; assay type: ADME, organism-based; set-up: time < 24 hrs, dose 2 mg/kg, route ip; conditions: in vivo
# [9] = MRT in ICR mouse at 2 mg/kg, ip measured upto 24 hrs by LC-MS/MS analysis; assay type: ADME, organism-based; conditions: in vivo
structure (smiles),measurement,setting,value
C=CC(=O)N(C)c1nc(NC2CCN(C)CC2)c2cc(OC)c(OCCCN3CCCC3)cc2n1,IC50,MDA-MB-231 [1],2.88 µM
same,Activity,[2],Active
same,IC50,[3],> 20 µM
same,Activity,[4],53800 Da
same,inhibition,MDA-MB-231 [5],Active
same,inhibition,PANC-1 [6],Active
same,inhibition in vivo at 2 mg/kg,PANC-1 [7],52.2%
same,Cmax,[8],316 ng/mL
same,MRT,[9],36.6 min

# — ChEMBL document CHEMBL5338815 (J Med Chem, 2023)
